Source: ChEMBL document CHEMBL1147179, “Synthesis and antimicrobial activity of some novel phenyl and benzimidazole substituted benzyl ethers” (2007)
Converted amounts (≈) assume the structure as drawn. The source made the active and inactive calls. No cut-off for these calls is given here.

Columns and labels:
Escherichia coli = assay: Antibacterial activity against Escherichia coli ATCC 25922 at 100 ug/ml by diffusion method; format: functional, organism-based
Pichia kudriavzevii = assay: Antifungal activity against Candida krusei ATCC 6258 by macro-broth dilution assay; format: functional
Candida albicans = assay: Antifungal activity against Candida albicans ATCC 10231 by macro-broth dilution assay; format: functional
Staphylococcus aureus [1] = assay: Antibacterial activity against Staphylococcus aureus ATCC 25923 by macro-broth dilution assay; format: functional
Staphylococcus aureus [2] = assay: Antibacterial activity against methicillin-resistant Staphylococcus aureus ATCC 43300 by macro-broth dilution assay; format: functional

| SMILES | Activity (Escherichia coli) | MIC (Pichia kudriavzevii) [µg/mL] | MIC (Candida albicans) [µg/mL] | MIC (Staphylococcus aureus [1]) [µg/mL] | MIC (Staphylococcus aureus [2]) [µg/mL] |
| --- | --- | --- | --- | --- | --- |
| Clc1ccc(COC(Cn2ccnc2)c2ccc(Cl)cc2Cl)c(Cl)c1 (stereo unspecified) [MICONAZOLE] | inactive | 0.78 (≈ 1.87 µM) | 0.19 (≈ 0.457 µM) |  |  |
| Clc1ccc(COC(Cn2cnc3ccccc32)c2ccccc2)cc1Cl (stereo unspecified) | inactive | 25 (≈ 62.9 µM) | 12.5 (≈ 31.5 µM) | 3.12 (≈ 7.85 µM) | 25 (≈ 62.9 µM) |
| CC1(C)S[C@@H]2[C@H](NC(=O)[C@H](N)c3ccccc3)C(=O)N2[C@H]1C(=O)O [AMPICILLIN] | inactive |  |  | 0.78 (≈ 2.23 µM) | 25 (≈ 71.5 µM) |
| Clc1ccc(COC(Cn2cnc3ccccc32)c2ccccc2)cc1 (stereo unspecified) | inactive | 25 (≈ 68.9 µM) | 25 (≈ 68.9 µM) | 3.12 (≈ 8.6 µM) | 12.5 (≈ 34.4 µM) |
| Clc1cccc(Cl)c1COC(Cn1cnc2ccccc21)c1ccccc1 (stereo unspecified) | inactive | 12.5 (≈ 31.5 µM) | 12.5 (≈ 31.5 µM) | 3.12 (≈ 7.85 µM) | 6.25 (≈ 15.7 µM) |
| Clc1ccc(Cl)c(COC(Cn2cnc3ccccc32)c2ccccc2)c1 (stereo unspecified) | inactive |  |  |  |  |
| OC(Cn1cncn1)(Cn1cncn1)c1ccc(F)cc1F [FLUCONAZOLE] | inactive | 25 (≈ 81.6 µM) | 0.78 (≈ 2.55 µM) |  |  |
| FC(F)(F)c1ccc(COC(Cn2cnc3ccccc32)c2ccccc2)cc1 (stereo unspecified) | inactive | 12.5 (≈ 31.5 µM) | 25 (≈ 63.1 µM) | 6.25 (≈ 15.8 µM) | 12.5 (≈ 31.5 µM) |
| Brc1ccc(COC(Cn2cnc3ccccc32)c2ccccc2)cc1 (stereo unspecified) | inactive | 25 (≈ 61.4 µM) | 25 (≈ 61.4 µM) | 3.12 (≈ 7.66 µM) | 12.5 (≈ 30.7 µM) |
| Clc1ccc(COC(Cn2cnc3ccccc32)c2ccccc2)c(Cl)c1 (stereo unspecified) | inactive | 25 (≈ 62.9 µM) | 25 (≈ 62.9 µM) | 3.12 (≈ 7.85 µM) | 12.5 (≈ 31.5 µM) |
| O=C(O)c1cn(C2CC2)c2cc(N3CCNCC3)c(F)cc2c1=O | inactive |  |  |  |  |
| Fc1ccc(COC(Cn2cnc3ccccc32)c2ccccc2)cc1 (stereo unspecified) | inactive | 25 (≈ 72.2 µM) | 25 (≈ 72.2 µM) | 12.5 (≈ 36.1 µM) | 25 (≈ 72.2 µM) |
| c1ccc(COC(Cn2cnc3ccccc32)c2ccccc2)cc1 (stereo unspecified) | inactive | 25 (≈ 76.1 µM) | 25 (≈ 76.1 µM) | 25 (≈ 76.1 µM) | 25 (≈ 76.1 µM) |
